Tests used:
barnyardgrass [1] = test: Test A preemergence; assay type: in vivo, Echinochloa crus-galli; details: preemergence
Outline: (§1)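 Injury readout: eye-scored versus untreated controls, 0 to 100. Exposure period: ~10 days, greenhouse. Application: soil-directed spray over sown seed (pre) or spray on seedlings 2–10 cm tall with one or two leaves (post), compound carried in non-phytotoxic solvent including surfactant.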

crabgrass, large [2] = test: Test A preemergence; assay type: in vivo, Digitaria sanguinalis; details: preemergence; for Crabgrass, Large plant response rating (0 to 100 scale): visual injury approx. 10 days after treatment
Outline: as §1

foxtail, giant [3] = test: Test A preemergence; assay type: in vivo, Setaria faberii; details: preemergence; for Foxtail, Giant plant response rating (0 to 100 scale): visual injury approx. 10 days after treatment
Outline: as §1

morningglory [4] = test: Test A preemergence; assay type: in vivo, Ipomoea spp.; details: preemergence; for Morningglory plant response rating (0 to 100 scale): visual injury approx. 10 days after treatment
Outline: as §1

pigweed [5] = test: Test A preemergence; assay type: in vivo, Amaranthus retroflexus; details: preemergence; for Pigweed plant response rating (0 to 100 scale): visual injury approx. 10 days after treatment
Outline: as §1

velvetleaf [6] = test: Test A preemergence; assay type: in vivo, Abutilon theophrasti; details: preemergence; for Velvetleaf plant response rating (0 to 100 scale): visual injury approx. 10 days after treatment
Outline: as §1

wheat [7] = test: Test A preemergence; assay type: in vivo, Triticum aestivum; details: preemergence; for Wheat plant response rating (0 to 100 scale): visual injury approx. 10 days after treatment
Outline: as §1

corn [8] = test: Test A preemergence; assay type: in vivo, Zea mays; details: preemergence; for Corn plant response rating (0 to 100 scale): visual injury approx. 10 days after treatment
Outline: as §1

barnyardgrass [9] = test: Test A postemergence; assay type: in vivo, Echinochloa crus-galli
Outline: as §1

crabgrass, large [10] = test: Test A postemergence; assay type: in vivo, Digitaria sanguinalis
Outline: as §1

foxtail, giant [11] = test: Test A postemergence; assay type: in vivo, Setaria faberii
Outline: as §1

morningglory [12] = test: Test A postemergence; assay type: in vivo, Ipomoea spp.
Outline: as §1

pigweed [13] = test: Test A postemergence; assay type: in vivo, Amaranthus retroflexus
Outline: as §1

velvetleaf [14] = test: Test A postemergence; assay type: in vivo, Abutilon theophrasti
Outline: as §1

wheat [15] = test: Test A postemergence; assay type: in vivo, Triticum aestivum
Outline: as §1

corn [16] = test: Test A postemergence; assay type: in vivo, Zea mays
Outline: as §1

rice = test: Test B flood; assay type: in vivo, Oryza sativa; details: 250 g ai/ha, visual rating on 0 to 100 scale (0 no effect, 100 complete control), 13 to 15 days
Outline: (§2)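 Plants were grown to the 2-leaf stage, then pots were flooded to 3 cm above the soil and compounds were applied directly into the paddy water. Water depth was held for the whole test; after 13 to 15 days in a greenhouse, injury was visually rated against untreated controls (0 = no effect, 100 = complete control).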

sedge, umbrella = test: Test B flood; assay type: in vivo, Cyperus difformis; details: 250 g ai/ha, visual rating on 0 to 100 scale (0 no effect, 100 complete control), 13 to 15 days
Outline: as §2

ducksalad = test: Test B flood; assay type: in vivo, Heteranthera limosa; details: 250 g ai/ha, visual rating on 0 to 100 scale (0 no effect, 100 complete control), 13 to 15 days
Outline: as §2

barnyardgrass [17] = test: Test B flood; assay type: in vivo, Echinochloa crus-galli; details: 250 g ai/ha, visual rating on 0 to 100 scale (0 no effect, 100 complete control), 13 to 15 days
Outline: as §2

[18] = 125 g ai/ha, visual injury, 0 to 100 scale, approx. 10 days
[19] = 500 g ai/ha, visual injury after approx. 10 days, 0 to 100 scale (0 no effect, 100 complete control)
[20] = Postemergence, 500 g ai/ha, 0 to 100 scale (0 no effect, 100 complete control)
[21] = postemergence, 125 g ai/ha, about 10 days, visual rating on 0 to 100 scale (0 no effect, 100 complete control)
[22] = Postemergence, 125 g ai/ha, 0 to 100 scale, 0 no effect, 100 complete control
[23] = Postemergence, 500 g ai/ha, visual rating after approx. 10 days, 0 to 100 scale (0 no effect, 100 complete control)

Row | Compound | Barnyardgrass plant response rating (barnyardgrass [1]; [18]) | Barnyardgrass plant response rating (barnyardgrass [1]; [19]) | Crabgrass, Large plant response rating (crabgrass, large [2]; [19]) | Foxtail, Giant plant response rating (foxtail, giant [3]; [19]) | Morningglory plant response rating (morningglory [4]; [19]) | Pigweed plant response rating (pigweed [5]; [19]) | Velvetleaf plant response rating (velvetleaf [6]; [19]) | Wheat plant response rating (wheat [7]; [19]) | Corn plant response rating (corn [8]; [19]) | Crabgrass, Large plant response rating (crabgrass, large [10]; [21]) | Foxtail, Giant plant response rating (foxtail, giant [11]; [21]) | Morningglory plant response rating (morningglory [12]; [21]) | Pigweed plant response rating (pigweed [13]; [21]) | Velvetleaf plant response rating (velvetleaf [14]; [21]) | Wheat plant response rating (wheat [15]; [21]) | Corn plant response rating (corn [16]; [21]) | Plant response rating, Rice (rice) | Plant response rating, Sedge, Umbrella (sedge, umbrella) | Plant response rating, Ducksalad (ducksalad) | Plant response rating, Barnyardgrass (barnyardgrass [17]) | also measured
1 | O=C(NCC(F)(F)F)c1cc(Cl)n(Cc2cccc(C(F)(F)F)c2)n1 [Compound 170] | 0 | 0 | 70 | 50 | 0 | 60 | 0 | 0 | 0 | 20 | 0 | 10 | 60 | 0 | 0 | 0 | 0 | 0 | 0 | 0 | Crabgrass, Large plant response rating (0 to 100 scale) (crabgrass, large [2]; 125 g ai/ha): 10; Foxtail, Giant plant response rating (0 to 100 scale) (foxtail, giant [3]; 125 g ai/ha): 0; Morningglory plant response rating (0 to 100 scale) (morningglory [4]; 125 g ai/ha): 0; Pigweed plant response rating (0 to 100 scale) (pigweed [5]; 125 g ai/ha): 0; Velvetleaf plant response rating (0 to 100 scale) (velvetleaf [6]; 125 g ai/ha): 0; Wheat plant response rating (0 to 100 scale) (wheat [7]; 125 g ai/ha): 0; Corn plant response rating (0 to 100 scale) (corn [8]; 125 g ai/ha): 0; Barnyardgrass plant response rating (barnyardgrass [9]; [20]): 30; Barnyardgrass plant response rating (barnyardgrass [9]; [21]): 10; Crabgrass, Large plant response rating (crabgrass, large [10]; [20]): 30; Foxtail, Giant plant response rating (foxtail, giant [11]; [20]): 10; Morningglory plant response rating (morningglory [12]; [20]): 20; Pigweed plant response rating (pigweed [13]; [20]): 80; Velvetleaf plant response rating (velvetleaf [14]; [20]): 40; Wheat plant response rating (wheat [15]; [20]): 0; Corn plant response rating (corn [16]; [20]): 10
2 | COCc1cc(C(=O)NC(C)C)nn1Cc1ccnc(C(F)(F)F)c1 [Compound 166] | 50 | 100 | 100 | 100 | 100 | 100 | 100 | 90 | 90 | 40 | 50 | 100 | 10 | 40 | 0 | 30 | 10 | 80 | 85 | 10 | Crabgrass, Large plant response rating (0 to 100 scale) (crabgrass, large [2]; 125 g ai/ha): 100; Foxtail, Giant plant response rating (0 to 100 scale) (foxtail, giant [3]; 125 g ai/ha): 100; Morningglory plant response rating (0 to 100 scale) (morningglory [4]; 125 g ai/ha): 100; Pigweed plant response rating (0 to 100 scale) (pigweed [5]; 125 g ai/ha): 100; Velvetleaf plant response rating (0 to 100 scale) (velvetleaf [6]; 125 g ai/ha): 60; Wheat plant response rating (0 to 100 scale) (wheat [7]; 125 g ai/ha): 10; Corn plant response rating (0 to 100 scale) (corn [8]; 125 g ai/ha): 10; Barnyardgrass plant response rating (barnyardgrass [9]; [20]): 90; Barnyardgrass plant response rating (barnyardgrass [9]; [21]): 30; Crabgrass, Large plant response rating (crabgrass, large [10]; [20]): 80; Foxtail, Giant plant response rating (foxtail, giant [11]; [20]): 70; Morningglory plant response rating (morningglory [12]; [20]): 100; Pigweed plant response rating (pigweed [13]; [20]): 100; Velvetleaf plant response rating (velvetleaf [14]; [20]): 60; Wheat plant response rating (wheat [15]; [20]): 50; Corn plant response rating (corn [16]; [20]): 80
3 | Cc1cc(C(=O)Nc2ccc(F)cc2)nn1Oc1ccnc(C(F)(F)F)c1 [Compound 90] | 0 | 0 | 20 | 10 | 10 | 10 | 0 | 10 | 40 | 0 | 0 | 0 | 0 | 0 | 0 | 0 | 0 | 0 | 0 | 0 | Crabgrass, Large plant response rating (crabgrass, large [2]; [18]): 0; Foxtail, Giant plant response rating (foxtail, giant [3]; [18]): 0; Morningglory plant response rating (morningglory [4]; [18]): 0; Pigweed plant response rating (pigweed [5]; [18]): 0; Velvetleaf plant response rating (velvetleaf [6]; [18]): 0; Wheat plant response rating (wheat [7]; [18]): 0; Corn plant response rating (corn [8]; [18]): 0; Barnyardgrass plant response rating (barnyardgrass [9]; [22]): 0; Barnyardgrass plant response rating (barnyardgrass [9]; [23]): 0; Crabgrass, Large plant response rating (crabgrass, large [10]; [23]): 0; Foxtail, Giant plant response rating (foxtail, giant [11]; [23]): 0; Morningglory plant response rating (morningglory [12]; [23]): 10; Pigweed plant response rating (pigweed [13]; [23]): 0; Velvetleaf plant response rating (velvetleaf [14]; [23]): 0; Wheat plant response rating (wheat [15]; [23]): 0; Corn plant response rating (corn [16]; [23]): 30
4 | CCc1cc(C(=O)Nc2ccc(F)cc2)nn1Oc1ccnc(C(F)(F)F)c1 [Compound 89] | 0 | 0 | 10 | 10 | 0 | 0 | 0 | 0 | 0 | 0 | 0 | 0 | 0 | 0 | 0 | 0 | 0 | 0 | 0 | 0 | Crabgrass, Large plant response rating (crabgrass, large [2]; [18]): 0; Foxtail, Giant plant response rating (foxtail, giant [3]; [18]): 0; Morningglory plant response rating (morningglory [4]; [18]): 0; Pigweed plant response rating (pigweed [5]; [18]): 0; Velvetleaf plant response rating (velvetleaf [6]; [18]): 0; Wheat plant response rating (wheat [7]; [18]): 0; Corn plant response rating (corn [8]; [18]): 0; Barnyardgrass plant response rating (barnyardgrass [9]; [22]): 0; Barnyardgrass plant response rating (barnyardgrass [9]; [23]): 0; Crabgrass, Large plant response rating (crabgrass, large [10]; [23]): 0; Foxtail, Giant plant response rating (foxtail, giant [11]; [23]): 0; Morningglory plant response rating (morningglory [12]; [23]): 0; Pigweed plant response rating (pigweed [13]; [23]): 0; Velvetleaf plant response rating (velvetleaf [14]; [23]): 0; Wheat plant response rating (wheat [15]; [23]): 0; Corn plant response rating (corn [16]; [23]): 20

— patent US20150105252A1, “SUBSTITUTED PYRAZOLES AS HERBICIDES” (E I DU PONT DE NEMOURS AND COMPANY, priority 2013, published 2015)
